Columns and labels:
Type in all cases: in vivo
[1] = system: barnyardgrass (Echinochloa crus-galli); assay: Test C; settings: PREEMERGENCE
[2] = system: cocklebur (Xanthium strumarium); assay: Test C; set-up: key: 0 was no effect; 100 was complete control; settings: PREEMERGENCE
corn (Zea mays) = assay: Test C; set-up: key: 0 was no effect; 100 was complete control; settings: PREEMERGENCE
[3] = system: ivyleaf morningglory (Ipomoea hederacea); assay: Test C; settings: PREEMERGENCE
[4] = system: johnsongrass (Sorghum halepense); assay: Test C; set-up: key: 0 was no effect; 100 was complete control; settings: PREEMERGENCE
[5] = system: ladysthumb smartweed (Polygonum persicaria); assay: Test C; set-up: key: 0 was no effect; 100 was complete control; settings: PREEMERGENCE
[6] = system: purple nutsedge (Cyperus rotundus); assay: Test C; set-up: key: 0 was no effect; 100 was complete control; settings: PREEMERGENCE
[7] = system: velvetleaf (Abutilon theophrasti); assay: Test C; settings: PREEMERGENCE
[8] = system: purple nutsedge (Cyperus rotundus); assay: Test E pre-/postemergence/post directed; set-up: key: 0 is no injury; 100 is complete control
Source text: (§1) Seeds, tubers, or plant parts of alexandergrass (Brachiaria plantaginea), annual bluegrass (Poa annua), arrowleaf sida (Sida rhombifolia), barnyardgrass (Echinochloa crus-galli), bermudagrass (Cynodon dactylon), citrus (Citrus sinensis), common chickweed (Stellaria media), common purslane (Portulaca oleracea), common ragweed (Ambrosia elatior), common groundsel (Senecio vulgaris), dallisgrass (Paspalum dilatatum), goosegrass (Eleusine indica), green foxtail (Setaria viridis), guineagrass (Panicum maximum), itchgrass (Rottboellia exaltata), johnson grass (Sorghum halepense), kochia (Kochia scoparia), large crabgrass (Digitaria sanguinalis), leafy spurge (Euphorbia esula), pitted morningglory (Ipomoea lacunosa), purple nutsedge (Cyperus rotundus), quackgrass (Agropyron repens), Russian thistle (Salsola kali), sandbur (Cenchrus echinatus), sourgrass (Trichachne insularis), Spanishneedles (Bidens bipinnata), sugarcane (Saccharum officinarum), surinam grass (Brachiaria decumbens) and tall mallow (Malva sylvestris) were planted into greenhouse pots of flats containing greenhouse planting medium. Plant species were grown grown in separate pots or individual compartments. Preemergence applications were made within one day of planting the seed or plant part. Postemergence applications were applied when the plants were in the two to four leaf stage (three to twenty cm).
(§2) Test chemicals were formulated in a non-phytotoxic solvent mixture which included a surfactant and applied preemergence to the soil surface, postemergence to the plants or as a post directed spray to plants and soil at the base of the target species. Untreated control plants and treated plants were placed in the greenhouse and visually evaluated for injury 13 to 21 days after herbicide application. Plant response ratings, summarized in Table E, are based on a 0 to 100 scale where 0 is no injury and 100 is complete control. A dash (−) response means no test result.

[9] = system: Spanishneedles (Bidens bipinnata); assay: Test E pre-/postemergence/post directed
Source text: as §1, §2

[10] = system: alexandergrass (Brachiaria plantaginea); assay: Test E pre-/postemergence/post directed
Source text: as §1, §2

[11] = system: bermudagrass (Cynodon dactylon); assay: Test E pre-/postemergence/post directed
Source text: as §1, §2

[12] = system: common groundsel (Senecio vulgaris); assay: Test E pre-/postemergence/post directed
Source text: as §1, §2

[13] = system: common ragweed (Ambrosia elatior); assay: Test E pre-/postemergence/post directed
Source text: as §1, §2

[14] = system: itchgrass (Rottboellia exaltata); assay: Test E pre-/postemergence/post directed
Source text: as §1, §2

[15] = system: johnson grass (Sorghum halepense); assay: Test E pre-/postemergence/post directed
Source text: as §1, §2

[16] = system: large crabgrass (Digitaria sanguinalis); assay: Test E pre-/postemergence/post directed
Source text: as §1, §2

[17] = system: pitted morningglory (Ipomoea lacunosa); assay: Test E pre-/postemergence/post directed
Source text: as §1, §2

[18] = system: sandbur (Cenchrus echinatus); assay: Test E pre-/postemergence/post directed; settings: PREEMERGENCE
Source text: as §1, §2

[19] = system: surinam grass (Brachiaria decumbens); assay: Test E pre-/postemergence/post directed
Source text: as §1, §2

Question: How did the “Plant response rating, Barnyardgrass” value ([1]; Rate 35 g/ha) turn out when `Cc1cnc(-c2ccc(C(F)(F)F)cc2)nc1Cc1cccc(OC(F)(F)F)c1` [Compound 15] was run?
Answer: 10

Question: What about the “Plant response rating, Barnyardgrass” value ([1]; Rate 70 g/ha) of the same molecule?
Answer: 35

Question: And the “Plant response rating, Barnyardgrass” value ([1]; Rate 140 g/ha)?
Answer: 85

Question: What about the “Plant response rating, Cocklebur” value ([2]; Rate 35 g/ha) of the same molecule?
Answer: 0

Question: And the “Plant response rating, Cocklebur” value ([2]; Rate 70 g/ha)?
Answer: 0

Question: What about the “Plant response rating, Cocklebur” value ([2]; Rate 140 g/ha) of the same molecule?
Answer: 5

Question: And the “Plant response rating, Corn” value (corn (Zea mays); Rate 35 g/ha)?
Answer: 0

Question: And the “Plant response rating, Corn” value (corn (Zea mays); Rate 70 g/ha)?
Answer: 5

Question: What about the “Plant response rating, Corn” value (corn (Zea mays); Rate 140 g/ha) of the same molecule?
Answer: 10

Question: And the “Plant response rating, I. morningglory” value ([3]; Rate 35 g/ha)?
Answer: 15

Question: What about the “Plant response rating, I. morningglory” value ([3]; Rate 70 g/ha) of the same molecule?
Answer: 20

Question: What about the “Plant response rating, I. morningglory” value ([3]; Rate 140 g/ha) of the same molecule?
Answer: 65

Question: And the “Plant response rating, Johnsongrass” value ([4]; Rate 35 g/ha)?
Answer: 35

Question: And the “Plant response rating, Johnsongrass” value ([4]; Rate 70 g/ha)?
Answer: 85

Question: What about the “Plant response rating, Johnsongrass” value ([4]; Rate 140 g/ha) of the same molecule?
Answer: 100

Question: What about the “Plant response rating, Ladysthumb” value ([5]; Rate 35 g/ha) of the same molecule?
Answer: 0

Question: What about the “Plant response rating, Ladysthumb” value ([5]; Rate 70 g/ha) of the same molecule?
Answer: 20

Question: What about the “Plant response rating, Ladysthumb” value ([5]; Rate 140 g/ha) of the same molecule?
Answer: 90

Question: And the “Plant response rating, Purple nutsedge” value ([6]; Rate 35 g/ha)?
Answer: 0

Question: What about the “Plant response rating, Purple nutsedge” value ([6]; Rate 70 g/ha) of the same molecule?
Answer: 0

Question: What about the “Plant response rating, Purple nutsedge” value ([6]; Rate 140 g/ha) of the same molecule?
Answer: 0

Question: And the “Plant response rating, Velvetleaf” value ([7]; Rate 35 g/ha)?
Answer: 5

Question: What about the “Plant response rating, Velvetleaf” value ([7]; Rate 70 g/ha) of the same molecule?
Answer: 20

Question: And the “Plant response rating, Velvetleaf” value ([7]; Rate 140 g/ha)?
Answer: 70

Question: And the “Plant response rating, Purple nutsedge” value ([8]; POSTEMERGENCE, Rate 125 g/ha)?
Answer: 0

Question: And the “Plant response rating, Purple nutsedge” value ([8]; POSTEMERGENCE, Rate 250 g/ha)?
Answer: 0

Question: What about the “Plant response rating, Purple nutsedge” value ([8]; PREEMERGENCE, Rate 32 g/ha) of the same molecule?
Answer: 0

Question: And the “Plant response rating, Purple nutsedge” value ([8]; PREEMERGENCE, Rate 64 g/ha)?
Answer: 0

Question: What about the “Plant response rating, Purple nutsedge” value ([8]; PREEMERGENCE, Rate 125 g/ha) of the same molecule?
Answer: 0

Question: And the “Plant response rating, Purple nutsedge” value ([8]; PREEMERGENCE, Rate 250 g/ha)?
Answer: 0

Question: And the “Plant response rating, Spanishneedles” value ([9]; POSTEMERGENCE, Rate 125 g/ha)?
Answer: 5

Question: What about the “Plant response rating, Spanishneedles” value ([9]; POSTEMERGENCE, Rate 250 g/ha) of the same molecule?
Answer: 10

Question: And the “Plant response rating, Spanishneedles” value ([9]; PREEMERGENCE, Rate 32 g/ha)?
Answer: 50

Question: And the “Plant response rating, Spanishneedles” value ([9]; PREEMERGENCE, Rate 64 g/ha)?
Answer: 30

Question: What about the “Plant response rating, Spanishneedles” value ([9]; PREEMERGENCE, Rate 125 g/ha) of the same molecule?
Answer: 98

Question: What about the “Plant response rating, Alexandergrass” value ([10]; POSTEMERGENCE, Rate 125 g/ha) of the same molecule?
Answer: 10

Question: And the “Plant response rating, Alexandergrass” value ([10]; POSTEMERGENCE, Rate 250 g/ha)?
Answer: 20

Question: What about the “Plant response rating, Alexandergrass” value ([10]; PREEMERGENCE, Rate 32 g/ha) of the same molecule?
Answer: 75

Question: And the “Plant response rating, Alexandergrass” value ([10]; PREEMERGENCE, Rate 64 g/ha)?
Answer: 80

Question: What about the “Plant response rating, Bermudagrass” value ([11]; POSTEMERGENCE, Rate 125 g/ha) of the same molecule?
Answer: 20

Question: What about the “Plant response rating, Bermudagrass” value ([11]; POSTEMERGENCE, Rate 250 g/ha) of the same molecule?
Answer: 20

Question: And the “Plant response rating, Bermudagrass” value ([11]; PREEMERGENCE, Rate 32 g/ha)?
Answer: 98

Question: What about the “Plant response rating, Bermudagrass” value ([11]; PREEMERGENCE, Rate 64 g/ha) of the same molecule?
Answer: 98

Question: What about the “Plant response rating, Bermudagrass” value ([11]; PREEMERGENCE, Rate 125 g/ha) of the same molecule?
Answer: 98

Question: And the “Plant response rating, Bermudagrass” value ([11]; PREEMERGENCE, Rate 250 g/ha)?
Answer: 98

Question: What about the “Plant response rating, Com. groundsel” value ([12]; POSTEMERGENCE, Rate 250 g/ha) of the same molecule?
Answer: 20

Question: And the “Plant response rating, Com. groundsel” value ([12]; PREEMERGENCE, Rate 64 g/ha)?
Answer: 98

Question: And the “Plant response rating, Com. ragweed” value ([13]; POSTEMERGENCE, Rate 125 g/ha)?
Answer: 5

Question: And the “Plant response rating, Com. ragweed” value ([13]; POSTEMERGENCE, Rate 250 g/ha)?
Answer: 10

Question: And the “Plant response rating, Com. ragweed” value ([13]; PREEMERGENCE, Rate 125 g/ha)?
Answer: 98

Question: What about the “Plant response rating, Itchgrass” value ([14]; POSTEMERGENCE, Rate 125 g/ha) of the same molecule?
Answer: 80

Question: What about the “Plant response rating, Itchgrass” value ([14]; POSTEMERGENCE, Rate 250 g/ha) of the same molecule?
Answer: 85

Question: And the “Plant response rating, Itchgrass” value ([14]; PREEMERGENCE, Rate 32 g/ha)?
Answer: 10

Question: What about the “Plant response rating, Itchgrass” value ([14]; PREEMERGENCE, Rate 64 g/ha) of the same molecule?
Answer: 30

Question: What about the “Plant response rating, Itchgrass” value ([14]; PREEMERGENCE, Rate 125 g/ha) of the same molecule?
Answer: 60

Question: What about the “Plant response rating, Itchgrass” value ([14]; PREEMERGENCE, Rate 250 g/ha) of the same molecule?
Answer: 80

Question: What about the “Plant response rating, Johnsongrass” value ([15]; POSTEMERGENCE, Rate 125 g/ha) of the same molecule?
Answer: 98

Question: And the “Plant response rating, Johnsongrass” value ([15]; PREEMERGENCE, Rate 32 g/ha)?
Answer: 60

Question: What about the “Plant response rating, Johnsongrass” value ([15]; PREEMERGENCE, Rate 64 g/ha) of the same molecule?
Answer: 90

Question: And the “Plant response rating, Johnsongrass” value ([15]; PREEMERGENCE, Rate 125 g/ha)?
Answer: 90

Question: And the “Plant response rating, Large crabgrass” value ([16]; POSTEMERGENCE, Rate 125 g/ha)?
Answer: 10

Question: What about the “Plant response rating, Large crabgrass” value ([16]; POSTEMERGENCE, Rate 250 g/ha) of the same molecule?
Answer: 40

Question: And the “Plant response rating, Large crabgrass” value ([16]; PREEMERGENCE, Rate 32 g/ha)?
Answer: 98

Question: And the “Plant response rating, P. morninglory” value ([17]; POSTEMERGENCE, Rate 125 g/ha)?
Answer: 5

Question: And the “Plant response rating, P. morninglory” value ([17]; POSTEMERGENCE, Rate 250 g/ha)?
Answer: 5

Question: What about the “Plant response rating, P. morninglory” value ([17]; PREEMERGENCE, Rate 32 g/ha) of the same molecule?
Answer: 5

Question: What about the “Plant response rating, P. morninglory” value ([17]; PREEMERGENCE, Rate 64 g/ha) of the same molecule?
Answer: 40

Question: And the “Plant response rating, P. morninglory” value ([17]; PREEMERGENCE, Rate 125 g/ha)?
Answer: 75

Question: What about the “Plant response rating, P. morninglory” value ([17]; PREEMERGENCE, Rate 250 g/ha) of the same molecule?
Answer: 90

Question: What about the “Plant response rating, Sandbur” value ([18]; Rate 32 g/ha) of the same molecule?
Answer: 10

Question: What about the “Plant response rating, Sandbur” value ([18]; Rate 64 g/ha) of the same molecule?
Answer: 20

Question: What about the “Plant response rating, Sandbur” value ([18]; Rate 125 g/ha) of the same molecule?
Answer: 50

Question: What about the “Plant response rating, Surinam grass” value ([19]; POSTEMERGENCE, Rate 125 g/ha) of the same molecule?
Answer: 35

Question: And the “Plant response rating, Surinam grass” value ([19]; POSTEMERGENCE, Rate 250 g/ha)?
Answer: 40

Question: What about the “Plant response rating, Surinam grass” value ([19]; PREEMERGENCE, Rate 32 g/ha) of the same molecule?
Answer: 20

Question: What about the “Plant response rating, Surinam grass” value ([19]; PREEMERGENCE, Rate 64 g/ha) of the same molecule?
Answer: 20
